Experimental data reported in US20230312564A1, “AROMATIC RING-LACTAM COMPOUND, PREPARATION METHOD THEREFOR AND USE THEREOF” (SHANGHAI RINGENE BIOPHARMA CO., LTD., priority 2020, published 2023).
Where two headings read alike, the source gives them in different places.

Experiments:
ERK1/2 kinase = biological target: T1, ERK1/2 kinase; assay: ERK1/2 kinase (Carna) inhibitory activity, Caliper mobility shift; type: biochemical; conditions: read-out: ERK½ IC50
T1 construct: fused on or other part: Carna's ERK products carry a GST tag by vendor knowledge
Method: (1) Preparation of 1×Kinase buffer; (2) preparation of compound concentration gradient: the initial test concentration of the tested compound was 10 μM, which was 3-fold diluted to 10 concentrations, and a duplicate test was conducted, and then the tested compound was diluted in a 96 well plate to a 100-fold final concentration of 10 different concentrations of solution. […] Log (inhibitor) vs. response—Variable slope of the analysis software GraphPad Prism 5 was used to fit the dose-effect curve to obtain the IC50 value of each compound on the enzyme activity.
2. […] (A<10 nM, 10 nM≤B<200 nM, C≥200 nM)

Colo-205 cells = assay: Colo-205 tumor cell proliferation, CCK-8, 72 hours; type: cell-based; conditions: for IC50: Homo sapiens, COLO 205, 72 hours, CCK-8, read-out: Colo-205 IC50
Method: 1. Test method: Colo-205 cells (ATCC) in logarithmic growth phase were inoculated into a 96-well culture plate at an appropriate density with 90 μL per well. After overnight culture, different concentrations of the compound were added and acted for 72 hours, and a solvent control group (negative control) was set. After the compound was acted on cells for 72 hours, the effect of the compound on cell proliferation was detected by the cell counting kit CCK-8 (Dojindo), and 10 μL of CCK-8 reagent was added to each well. After the plate was placed in a 37° C. incubator for 2 to 4 hours, a full-wavelength microplate reader SpectraMax 190 was adopted for obtaining the readings with a measured wavelength of 450 nm. […] The IC50 value was obtained by four-parameter regression with the software attached to the microplate reader.

Row | Compound | IC50 (ERK1/2 kinase; class symbols) [nM] | IC50 (Colo-205 cells; class symbols) [nM] | cell proliferation inhibitory activity (in words) (Colo-205 cells; Colo-205) | IC50 (ERK1/2 kinase; numeric values) [nM] | IC50 (Colo-205 cells; numeric values) [nM]
1 | Cc1cccc([C@@H](CO)NC(=O)[C@@H](C)N2Cc3ccc(-c4cc(NC5CCOCC5)ncn4)c(F)c3C2=O)c1 [Embodiment 6] | < 10 | < 100 |  |  | 
2 | Cc1cccc([C@@H](CO)NC(=O)[C@@H](C)N2Cc3ccc(-c4cc(NC5CCOCC5)ncn4)nc3C2=O)c1 [Embodiment 7] | 10 to 200 | 100 to 1000 |  |  | 
3 | Cc1cccc([C@@H](CO)NC(=O)[C@@H](C)N2Cc3ccc(-c4ccnc(NC5CC(F)(F)C5)c4)c(F)c3C2=O)c1 [Embodiment 8] | < 10 | < 100 | strong cell proliferation inhibitory activity |  | 
4 | Cc1cccc([C@@H](CO)NC(=O)[C@@H](C)N2Cc3ccc(-c4nc(Nc5ccnn5C)ncc4Cl)nc3C2=O)c1 [Embodiment 9] | < 10 | 100 to 1000 |  |  | 
5 | Cc1cccc([C@@H](CO)NC(=O)[C@@H](C)N2Cc3ccc(-c4nc(NC5CC(F)(F)C5)ncc4Cl)nc3C2=O)c1 [Embodiment 10] |  | 100 to 1000 |  | 13 | 
6 | Cc1cccc([C@@H](CO)NC(=O)[C@@H](C)N2Cc3ccc(-c4nc(N[C@H]5CCOC5)ncc4Cl)nc3C2=O)c1 [Embodiment 11] |  | 100 to 1000 |  | 8.3 | 
7 | Cc1cccc([C@@H](CO)NC(=O)[C@@H](C)N2Cc3ccc(-c4nc(Nc5ccc(F)c(N6CCOCC6)c5)ncc4Cl)nc3C2=O)c1 [Embodiment 12] |  | 100 to 1000 |  | 12 | 
8 | Cc1cccc([C@@H](CO)NC(=O)[C@@H](C)N2Cc3ccc(-c4cc(NC5CCOCC5)ncc4Cl)nc3C2=O)c1 [Embodiment 13] | 10 to 200 | 100 to 1000 |  |  | 
9 | Cc1cccc([C@@H](CO)NC(=O)[C@@H](C)N2Cc3ccc(-c4cc(NC5CCOCC5)ncc4C)nc3C2=O)c1 [Embodiment 14] | 10 to 200 | 100 to 1000 |  |  | 
10 | Cc1cccc([C@@H](CO)NC(=O)[C@@H](C)N2Cc3ccc(-c4cc(Nc5ccnn5C)ncc4F)nc3C2=O)c1 [Embodiment 15] | 10 to 200 | 100 to 1000 |  |  | 
11 | Cc1cccc([C@@H](CO)NC(=O)[C@@H](C)N2Cc3ccc(-c4ccnc(Nc5ccnn5C)n4)nc3C2=O)c1 [Embodiment 16] | < 10 | < 100 |  |  | 
12 | Cc1cccc([C@@H](CO)NC(=O)[C@@H](C)N2Cc3ccc(-c4nc(NC5COC5)ncc4Cl)nc3C2=O)c1 [Embodiment 17] |  | 100 to 1000 |  | 5.2 | 
13 | C[C@H](C(=O)N[C@H](CO)c1ccc(F)c(Cl)c1)N1Cc2ccc(-c3nc(NC4CCOCC4)ncc3Cl)nc2C1=O [Embodiment 19] |  |  |  | 4.8 | 202
